Patent US4954347A (priority 1988, dated 1990)
“Also recorded” adds a separate entry of the source. Where a name gives a salt, the structure may show the parent alone. Read-outs that look alike come from different tables or passages of the source.

What was measured:
beta-adrenergic = settings: cited from earlier work
[1] = human, in vivo; cited from earlier work
[2] = system: fast inward sodium channels; settings: hydrochloride; cited from earlier work
calcium = settings: cited from earlier work
[3] = system: supraventricular and ventricular arrhythmias; settings: in vivo; hydrochloride; cited from earlier work
[4] = one patient; quinidine concomitantly with propafenone
[5] = system: electrically induced arrhythmias, ventricular tachycardias, circus-movement flutter; settings: experimental animals; cited from earlier work

COCCc1ccc(OCC(O)CNC(C)C)cc1 (centres unmarked) [metoprolol]
beta-blocking activity (beta-adrenergic): primarily a beta-adrenergic blocking agent | half-life [1]: 3 to 7 h | systemic bioavailability [1]: 40-50%

CCCNCC(O)COc1ccccc1C(=O)CCc1ccccc1 (centres unmarked) [propafenone, 2'-[3-(prophylamino)-2-(hydroxy)-(propoxy)-3-phenylpropiophenone hydrochloride]
blockade of fast sodium channels [2]: blocks fast inward sodium channels; also recorded: blockade of the fast sodium channel | calcium antagonist activity (calcium): weak calcium antagonist activity | beta-blocking activity (beta-adrenergic; hydrochloride): only a weak beta-blocker | suppression of supraventricular and ventricular arrhythmias [3]: effective against recurrent supraventricular and ventricular arrhythmias; also recorded: effective in suppressing both supraventricular and ventricular arrhythmias

C=C[C@H]1C[N@@]2CC[C@H]1C[C@@H]2[C@@H](O)c1ccnc2ccc(OC)cc12 [quinidine]
effect on the blood levels of propafenone [4]: very pronounced effect | "late" ventricular tachycardias following coronary artery occlusion [5]: prevent or terminate | circus-movement flutter [5]: terminate or prevent | threshold for electrically induced arrhythmias [5]: raise the threshold
